Experimental findings from patent EP0183129A1, “Quinolonecarboxylic acid derivatives” (KYORIN PHARMACEUTICAL CO., LTD., priority 1984, dated 1986) are described below.

In one data set the test system is C. difficile I-E. Briefly: In vitro antibacterial activity, MIC (standard strain). The data set is classed as cell-based. Conditions: Clostridioides difficile; C. difficile I-E; 10^6 cells/ml; standard strain; read-out: MIC.
In the next data set the test system is E. coli ML4707. The data set is described as follows: In vivo antibacterial activity against systemic infection in mice. The arrangement: species or system mice (ICR-S). Conditions: for ED50: Escherichia coli, ML4707, mice (ICR-S), oral, an hour after intraperitoneal infection, challenge dose 2.7 x 10^6 ~ 8.8 x 10^6 cfu/mouse, read-out: ED50 E. coli ML4707; for activity against gram-negative bacterial infections compared with the reference compounds: systemic infection in mice, result in words. The method, then: Experiment-2 In vivo antibacterial activity against systemic infection in mice (ICR-S)
The infections were produced by intraperitoneal injection of a suspension of the bacterial culture corresponding to the germ studied. The products were administered orally at an hour after the infection.

A short description of data set [1]: Urinary and bile excretion after oral administration, bioassay by cup method. It counts as in vivo. As to conditions: rat, fasted rats, 10 mg/kg oral, Mean ± S.D. (n=5).
A short description of data set [2]: Absorption and distribution: concentration in blood and organs after oral administration, bioassay by cup method. The data set is classed as in vivo. Conditions: rat, rats, fasted, 10 mg/kg oral, Mean ± S.D. (n=5); for concentration at 0.5 h: 1/2 hr after administration; for concentration at 1 h: 1 hr after administration; for concentration at 2 h: 2 hr after administration; for concentration at 4 h: 4 hr after administration; for concentration at 6 h: 6 hr after administration; for concentration at 8 h: 8 hr after administration.

[3] abbreviates: kidney, read-out: Concentration in organs: Kidney.
Setting [4] is: liver, read-out: Concentration in organs: Liver.
[5] abbreviates: lung, read-out: Concentration in organs: Lung.
Where [6] appears, read: serum, read-out: Concentration in organs: Serum.

Where a name gives a salt, the structure may show the parent alone. Read-outs that look alike come from different tables or passages of the source.

For orientation: MIC means the least concentration at which growth counts as inhibited. `NCC1CCN(c2c(F)cc3c(=O)c(C(=O)O)cn(C4CC4)c3c2F)C1` (stereo not drawn) [Example 1, 7-(3-Aminomethyl-l-pyrrolidinyl)-l-cyclopropyl-6,8-difluoro-1,4-dihydro-4-oxo-3-quinolinecarboxylic acid hydrochloride]: the minimal inhibitory concentration (MIC) in the data set on C. difficile I-E stood at 1.56 µg/mL.

Regarding `CCNCC1CCN(c2cc3c(cc2F)c(=O)c(C(=O)O)cn3C2CC2)C1.Cl` (stereo not shown) [Example 7, 1-Cyclopropyl-7-(3-ethylaminomethyl-1-pyrrolidinyl)-6-fluoro-1,4-dihydro-4-oxo-3-quinolinecarboxylic acid hydrochloride], the MIC in the data set on C. difficile I-E was 12.5 µg/mL.

On to `CNCC1CCN(c2cc3c(cc2F)c(=O)c(C(=O)O)cn3C2CC2)C1` (stereo not drawn) [Example 9, 1-Cyclopropyl-6-fluoro-1,4-dihydro-7-(3-methylaminomethyl-l-pyrrolidinyl)-4-oxo-3-quinolinecarboxylic acid hydrochloride], for which the MIC in the data set with C. difficile I-E amounted to 12.5 µg/mL.

As to `CCCNCC1CCN(c2c(F)cc3c(=O)c(C(=O)O)cn(C4CC4)c3c2F)C1` (stereo not drawn) [Example 10, 1-Cyclopropyl-6,8-difluoro-1,4-dihydro-4-oxo-7-(3-n-propylaminomethyl-l-pyrrolidinyl)-3-quinolinecarboxylic acid hydrochloride], the MIC in the data set with C. difficile I-E is 6.25 µg/mL.

Usually ED50 stands for the dose that gives a 50% effect, or the effect in half of the subjects. For the molecule `CNCC1CCN(c2c(F)cc3c(=O)c(C(=O)O)cn(C4CC4)c3c2Cl)C1` (stereo not drawn) [Example 12, 8-Chloro-l-cyclopropyl-6-fluoro-1,4-dihydro-7-(3-methylaminomethyl-1-pyrrolidinyl)-4-oxo-3-quinolinecarboxylic acid hydrochloride], in the data set with E. coli ML4707, the ED50 came out at 1.9 mg/kg.

Turning to `CCNCC1CCN(c2c(F)cc3c(=O)c(C(=O)O)cn(C4CC4)c3c2Cl)C1` (stereo not drawn) [Example 13, 8-Chloro-l-cyclorpropyl-6-fluoro-1,4-dihydro-7-(3-ethylaminomethyl-l-pyrrolidinyl)-4-oxo-3-quinolinecarboxylic acid], the ED50 with E. coli ML4707 was 0.7 mg/kg. Further, the “activity against gram-negative bacterial infections compared with the reference compounds” value (“activity … compared with the reference compounds” below) with E. coli ML4707 is given as “greater activity against gram-negative bacterial infections than the reference compounds”. In addition, the concentration at 3 h in data set [1] (bile 0 ~ 3 hr, read-out: Concentration, bile) worked out at 36400 ± 9900 ng/mL; in data set [1] (urine 0 ~ 3 hr, read-out: Concentration, urine), 36100 ± 9200 ng/mL. In addition, the dose excreted at 3 h in data set [1] (bile 0 ~ 3 hr, read-out: Recovery, bile) was 4.9 ± 1.5%; in data set [1] (urine 0 ~ 3 hr, read-out: Recovery, urine), 2.7 ± 2.1%. The dose excreted at 6 h is 6.9 ± 1.4% in data set [1] (bile 0 ~ 6 hr, read-out: Recovery, bile) and 4.8 ± 1.8% in data set [1] (urine 0 ~ 6 hr, read-out: Recovery, urine). Besides, the dose excreted at 24 h in data set [1] (bile 0 ~ 24 hr, read-out: Recovery, bile) was determined as 12.9 ± 4.9%; in data set [1] (urine 0 ~ 24 hr, read-out: Recovery, urine) it was 7.4 ± 1.5%. Moreover, the concentration at 6 h in data set [1] (bile 3 ~ 6 hr, read-out: Concentration, bile) was determined as 19700 ± 8000 ng/mL; in data set [1] (urine 3 ~ 6 hr, read-out: Concentration, urine), 39400 ± 13300 ng/mL; in data set [2] (setting [3]), 840 ± 90 ng/g; in data set [2] (setting [4]) it was 860 ± 150 ng/g; in data set [2] (setting [5]) it was 420 ± 50 ng/g; in data set [2] (setting [6]) it was 100 ± 10 ng/mL. Further, the concentration at 24 h turned out to be 11300 ± 8300 ng/mL in data set [1] (bile 6 ~ 24 hr, read-out: Concentration, bile) and 7600 ± 3600 ng/mL in data set [1] (urine 6 ~ 24 hr, read-out: Concentration, urine). Also, the concentration at 0.5 h in data set [2] (setting [3]) was found to be 5630 ± 640 ng/g; in data set [2] (setting [4]) it was 7780 ± 910 ng/g; in data set [2] (setting [5]), 3170 ± 710 ng/g; in data set [2] (setting [6]) it was 1720 ± 370 ng/mL. The concentration at 1 h in data set [2] (setting [3]) worked out at 4700 ± 600 ng/g; in data set [2] (setting [4]) it was 5710 ± 630 ng/g; in data set [2] (setting [5]), 2660 ± 420 ng/g; in data set [2] (setting [6]), 1120 ± 300 ng/mL. The concentration at 2 h in data set [2] (setting [3]) came to 2810 ± 250 ng/g; in data set [2] (setting [4]), 3140 ± 360 ng/g; in data set [2] (setting [5]), 1540 ± 210 ng/g; in data set [2] (setting [6]), 570 ± 80 ng/mL. For the same molecule, the concentration at 4 h in data set [2] (setting [3]) came to 1470 ± 250 ng/g; in data set [2] (setting [4]) it was 1340 ± 120 ng/g; in data set [2] (setting [5]) it was 700 ± 80 ng/g; in data set [2] (setting [6]), 230 ± 40 ng/mL. The concentration at 8 h in data set [2] (setting [3]) came to 890 ± 400 ng/g; in data set [2] (setting [4]), 1130 ± 520 ng/g; in data set [2] (setting [5]), 450 ± 150 ng/g; in data set [2] (setting [6]) it was 140 ± 80 ng/mL.

Consider `NCC1CCN(c2c(F)cc3c(=O)c(C(=O)O)cn(C4CC4)c3c2Cl)C1` (stereo not drawn) [Example 14, 8-Chloro-l-cyclopropyl-6-fluoro-l,4-dihydro-7-(3-aminomethyl-l-pyrrolidinyl)-4-oxo-3-quinolinecarboxylic acid hydrochloride], for which the 50% effective dose (ED50) in the data set on E. coli ML4707 amounted to 5.4 mg/kg.

`NCC1CCN(c2c(F)cc3c(=O)c(C(=O)O)cn(C4CC4)c3c2Br)C1` (stereo not drawn) [Example 15, 7-(3-Aminomethyl-l-pyrrolidinyl)-8-bromo-l-cyclopropyl-6-fluoro-1,4-dihydro-4-oxo-3-quinolinecarboxylic acid]: in the data set on E. coli ML4707, the ED50 is 7.1 mg/kg.

As for `CNCC1CCN(c2c(F)cc3c(=O)c(C(=O)O)cn(C4CC4)c3c2Br)C1` (stereo not drawn) [Example 16, 8-Bromo-1-cyclopropyl-6-fluoro-1,4-dihydro-7-(3-methylaminomethyl-l-pyrrolidinyl)-4-oxo-3-quinolinecarboxylic acid], in the data set with E. coli ML4707, the ED50 came out at 1.9 mg/kg.

For `CCNCC1CCN(c2c(F)cc3c(=O)c(C(=O)O)cn(C4CC4)c3c2Br)C1` (stereo not drawn) [Example 17, 8-Bromo-l-cyclopropyl-7-(3-ethylaminomethyl-l-pyrrolidinyl)-6-fluoro-1,4-dihydro-4-oxo-3-quinolinecarboxylic acid], in the data set with E. coli ML4707, the ED50 amounted to 0.9 mg/kg and the “activity … compared with the reference compounds” value is given as “greater activity against gram-negative bacterial infections than the reference compounds”.

With `CN(C)CC1CCN(c2c(F)cc3c(=O)c(C(=O)O)cn(C4CC4)c3c2Cl)C1` (stereo not drawn) [Example 20, 8-Chloro-1-cyclopropyl-6-fluoro-1,4-dihydro-7-(3-dimethylaminomethyl-l-pyrrolidinyl)-4-oxo-3-quinolinecarboxylic acid], the ED50 with E. coli ML4707 stood at 2.1 mg/kg.

`CN(C)CC1CCN(c2c(F)cc3c(=O)c(C(=O)O)cn(C4CC4)c3c2F)C1` (stereo not shown) [Example 21, 1-Cyclopropyl-6,8-difluoro-1,4-dihydro-7-(3-dimethylaminomethyl-1-pyrrolidinyl)-4-oxo-3-quinolinecarboxylic acid]: in the data set with E. coli ML4707, the ED50 is 1.2 mg/kg and the “activity … compared with the reference compounds” value is given as “greater activity against gram-negative bacterial infections than the reference compounds”.

As to `CCNCC1CCN(c2c(F)cc3c(=O)c(C(=O)O)cn(CC)c3c2F)C1` (stereo not shown) [Ref.1, 1-Ethyl-7-(3-ethylaminomethyl-1-pyrrolidinyl)-6,8-difluoro-1,4-dihydro-4-oxo-3-quinolinecarboxylic acid, reference compound], the 50% effective dose (ED50) in the data set with E. coli ML4707 was greater than 10 mg/kg.
